This is an account of results in ChEMBL document CHEMBL1121709, “Importance of the aromatic ring in adrenergic amines. 6. Nonaromatic analogues of phenylethanolamine as inhibitors of phenylethanolamine N-methyltransferase: role of pi-electronic and steric interactions” (J Med Chem, 1981).

Bounds are passed on as bounds.

In one assay the target is T1, Phenylethanolamine N-methyltransferase (Bos taurus, UniProt P10938).
T1 sequence (P10938 whole entry): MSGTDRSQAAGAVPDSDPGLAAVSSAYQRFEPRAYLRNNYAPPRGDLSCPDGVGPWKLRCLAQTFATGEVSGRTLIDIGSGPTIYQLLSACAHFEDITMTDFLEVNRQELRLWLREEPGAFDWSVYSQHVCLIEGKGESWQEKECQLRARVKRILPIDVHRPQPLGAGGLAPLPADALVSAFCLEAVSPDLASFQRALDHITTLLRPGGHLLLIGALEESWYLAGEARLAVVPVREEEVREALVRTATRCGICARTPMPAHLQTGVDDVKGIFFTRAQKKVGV
Kind of assay: The compound was measured for the 50% inhibition of phenylethanolamine N-methyl-transferase.
In the case of `NCC(O)C12CC3C[C@H](C1)C[C@H](C3)C2` (stereo partly drawn), it took 195 µM to reach half-maximal inhibition (IC50).

On to `NCC(O)C1CCCCCCC1` (stereo not drawn), for which half-maximal inhibition (IC50) required 8 µM. This IC50 lies about 24-fold lower than the previous one. On the same count and under the same terms, the same measure for `NCC(O)C1CC2C=CC1C2` (stereo in doubt; 9): 454 µM; for `NCC(O)C1CC2C=CC1C2` (stereo in doubt; 10): 1100 µM; for `NCC(O)C1CC2CCC1C2` (stereo in doubt; 12): 193 µM. Still for that read-out and setting: the same measure for `NCC(O)C1CC2CCC1C2` (stereo in doubt; 13): 475 µM.

The next assay concerns the target T1, Phenylethanolamine N-methyltransferase. Kind of assay: The compound was measured for the 50% inhibition of phenylethanolamine N-methyl-transferase; 50% inhibition was not achieved at 10e-3 M.
Consider `NCC(O)C12C=CC(CC1)C2` (stereo not drawn), for which the 50% inhibitory concentration (IC50) was above 1000 µM.

Turning to `NCC(O)C12CCC(CC1)C2` (stereo not drawn), the IC50 was above 1000 µM.
